Reference: ChEMBL document CHEMBL4622926, “Fibroblast growth factor receptor modulators employing diamines with reduced phospholipidosis-inducing potential” (Bioorg Med Chem, 2020)

Key:
Rattus norvegicus [1] = species: Rattus norvegicus; assay: Modulation of FGFR in Wistar rat cerebrocortical/hippocampal neuronal cells assessed as protection against glutamate-induced neuronal cell death by measuring cell survival at 10 uM pretreated for 24 hrs followed by glutamate-stimulation by CCK8 assay relative to SUN13837
CYP3A4 = CYP3A4 (Homo sapiens, UniProt P08684); assay: (§1) Mechanism based inactivation of CYP3A4 in human liver microsome assessed as remaining activity at 100 uM preincubated for 30 mins followed testosterone addition and measured after 10 mins by LC-MS/MS analysis relative to control; type: ADME, microsomes; details: human liver microsomes, probe testosterone, read-out: Activity
Chain of CYP3A4 (P08684 whole entry): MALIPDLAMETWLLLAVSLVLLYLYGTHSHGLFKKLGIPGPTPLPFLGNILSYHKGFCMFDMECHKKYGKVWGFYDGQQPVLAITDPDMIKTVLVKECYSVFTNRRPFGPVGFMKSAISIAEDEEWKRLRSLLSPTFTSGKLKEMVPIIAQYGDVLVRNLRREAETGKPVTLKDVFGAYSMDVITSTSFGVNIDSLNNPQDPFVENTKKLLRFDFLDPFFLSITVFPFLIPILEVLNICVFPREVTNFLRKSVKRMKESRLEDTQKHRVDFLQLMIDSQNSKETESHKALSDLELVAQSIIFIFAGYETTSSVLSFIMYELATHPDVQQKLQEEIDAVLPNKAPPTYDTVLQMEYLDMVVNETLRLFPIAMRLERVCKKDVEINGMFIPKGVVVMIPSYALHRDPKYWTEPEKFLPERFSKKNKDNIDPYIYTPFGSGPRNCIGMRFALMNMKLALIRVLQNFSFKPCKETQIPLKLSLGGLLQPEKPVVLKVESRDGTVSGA

[2] = Partition coefficient, logP of compound by RP-HPLC analysis; type: physicochemical; details: octanol/water
Cytochrome P450 3A4 = Cytochrome P450 3A4 (Homo sapiens, UniProt P08684); assay: as §1; type: ADME, microsomes; details: microsomes, 10 min, 100 µM
Chain of Cytochrome P450 3A4 (P08684 whole entry): as above

[3] = AUC in Crl:CD(SD) rat at 5 mg/kg, po by LC-MS/MS analysis; type: ADME, organism-based; details: in vivo
[4] = Clearance in Crl:CD(SD) rat at 1 mg/kg, iv by LC-MS/MS analysis; type: ADME, organism-based; details: in vivo
[5] = Elimination half life in Crl:CD(SD) rat at 1 mg/kg, iv by LC-MS/MS analysis; type: ADME, organism-based; details: in vivo, read-out: beta t1/2 (converted)
[6] = Volume of distribution in Crl:CD(SD) rat at 1 mg/kg, iv by LC-MS/MS analysis; type: ADME, organism-based; details: in vivo
[7] = Ratio of drug level in Crl:CD(SD) rat brain to plasma at 1 mg/kg, iv measured after 1 hr by LC-MS/MS analysis; type: ADME, organism-based
[8] = Oral bioavailability in Crl:CD(SD) rat at 5 mg/kg by LC-MS/MS analysis; type: ADME, organism-based; details: in vivo
Rattus norvegicus [9] = assay: Neuroprotective activity against microsphere induced Crl:CD(SD) rat cerebral embolism model assessed as recovery of motor coordination by measuring latency time at 1 mg/kg, po administered daily for 10 days starting from day 1 post microsphere injection and measured at 2 weeks after microsphere injection by rotarod test (reference value: 189.1 secs); type: functional
[10] = Drug metabolism in human liver microsomes assessed as carboxylesterase-mediated hydrolytic rate for diamine compound formation at 100 uM incubated for 60 mins in absence of NADPH measured per mg protein by LC-MS/MS analysis; type: ADME; details: 1 h
[11] = Oral bioavailability in Crl:CD(SD) rat at 10 mg/kg by LC-MS/MS analysis; type: ADME, organism-based; details: in vivo
[12] = AUC in Crl:CD(SD) rat at 10 mg/kg, po by LC-MS/MS analysis; type: ADME, organism-based; details: in vivo

Compound	activity at 10 min, 100 µM (CYP3A4) [%]	logP ([2]; read-out: logP)	Activity (Rattus norvegicus [1]) [%]	further results
Cc1nc(OCC(=O)N(C)C2CN(Cc3ccccc3)C2)nc(C)c1N	58	2.1	127	
Cc1nc(OCC(=O)N(C)C2CN(Cc3ccccc3)CC2F)nc(C)c1N (centres undefined)		3.7		Activity (Cytochrome P450 3A4): 16%
Cc1nc(OCC(=O)N(C)[C@H]2CN(Cc3ccccc3)C[C@@H]2O)nc(C)c1N (relative stereo)	55	2.4	93	
CN(C(=O)COc1ccc(Cl)nn1)C1CCN(CC2CC2(F)F)CC1 (centres undefined)	99	3.1	105	AUC [3]: 1590 ng·h/mL; clearance [4]: 38.3 mL/min/kg; half-life [5]: 1.7 h; Vd [6]: 4.2 L/kg; Kp at 1 h [7]: 0.92; bioavailability [8]: 73%; Time (Rattus norvegicus [9]): 315.5 s; Drug metabolism [10]: 0 pmol/min
Cc1nc(OCC(=O)N(C)C2CCN(Cc3ncccn3)CC2)nc(C)c1N	99	1	96	
Cc1nc(OCC(=O)N(C)C2CCN(CC3CC3(F)F)CC2)nc(C)c1N.Cl (racemic)	86	2.2	189	AUC [3]: 1100 ng·h/mL; clearance [4]: 38.3 mL/min/kg; half-life [5]: 2.7 h; Vd [6]: 3.2 L/kg; Kp at 1 h [7]: 0.12; bioavailability [8]: 52%
Cc1nc(OCC(=O)N2CC[C@@H]3[C@H]2CN3Cc2ccccc2)nc(C)c1N	40	2.8	87	
Cc1nc(OCC(=O)N(C)C2CCN(Cc3ccccc3)C2)nc(C)c1N (centres undefined)	55	2.6	77	
Cc1nc(OCC(=O)N(C)C2CN(Cc3ccccc3)CC2F)nc(C)c1N.Cl (centres undefined)				Activity (Cytochrome P450 3A4): 96%; logP [2]: 4.8
Cc1nc(OCC(=O)N(C)C2CCN(CC(F)F)CC2)nc(C)c1N	98	2	76	
CC(C)Cc1ccc(C(C)C(=O)O)cc1 (centres undefined) [IBUPROFEN]		2.97		
Cc1nc(OCC(=O)N(C)C2CCN(C3(C)COC3)CC2)nc(C)c1N	97	1.2	59	

Further lines, with some results ahead:

activity at 10 min, 100 µM (CYP3A4) [%]	logP ([2]; read-out: logP)	Compound	Activity (Rattus norvegicus [1]) [%]	further results
62	1.7	Cc1nc(OCC(=O)N(C)C2CCN(Cc3ncccc3F)CC2)nc(C)c1N	119	
100	2.6	CN(C(=O)COc1ccc(Cl)nn1)C1CCN(Cc2ncccc2F)CC1	44	
	2.82	C[C@@H]1C[C@H]2[C@@H]3CCC4=CC(=O)C=C[C@]4(C)[C@@]3(F)[C@@H](O)C[C@]2(C)[C@@]1(O)C(=O)CO [DEXAMETHASONE]		
95	1.1	Cc1nc(OCC(=O)N(C)C2CCN(C3COC3)CC2)nc(C)c1N	78	
97	0.7	Cc1nc(OCC(=O)N(C)C2CCN(CC(C)(C)O)CC2)nc(C)c1N	74	
60		Cc1nc(OCC(=O)N(C)C2CCN(Cc3ccccc3)CC2)nc(C)c1N		bioavailability [11]: 70%; clearance [4]: 41.7 mL/min/kg; AUC [12]: 3700 ng·h/mL; half-life [5]: 1.4 h; Vd [6]: 2.3 L/kg; Kp at 1 h [7]: 0.15; Time (Rattus norvegicus [9]): 307 s; Drug metabolism [10]: 7.2 pmol/min
100	4	CN(C(=O)COc1ccc(Cl)nn1)C1CCN(CC(F)(F)F)CC1	74	
75	2.6	Cc1nc(OCC(=O)N(C)C2CCN(CC(F)(F)F)CC2)nc(C)c1N	103	
